# According to ChEMBL document CHEMBL1201862, “PubChem BioAssay data set” (2004):
# Active and inactive are the calls of the source.
# Columns and labels:
# [1] = tested on: INS1; assay: beta cell apoptosis inhibitors, cytokine rescue, dose response, luminescence, retest (AID 449756); assay type: functional, cell-based; conditions: Rattus norvegicus;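 note: cell death triggered by IL-1 beta plus TNF-alpha plus IFN-gamma mixture; protective hits raise ATP signal compared with cytokine alone wells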
# [2] = NIH-3T3 fibroblast cytotoxicity, dose response, cytotoxicity control, cell-based, fluorescence, Alamar Blue, secondary assay (AID 2327); assay type: functional;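 note: NIH-3T3 mouse fibroblasts cultured with fluconazole at 8 µg/mL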
# [3] = C. albicans growth with fluconazole, confirmation, fluorescence, retest (AID 2467); assay type: functional, cell-based
# [4] = HEp-2 cell cytotoxicity, dose response, cytotoxicity control for RSV inhibitor project, HTS (AID 2410); assay type: functional; conditions: human respiratory syncytial virus
# [5] = biological target: Cytochrome P450 3A4 (Homo sapiens, UniProt P08684);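 note: CYP3A4 tested as one member of a cytochrome P450 panel screen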
# Sequence of Cytochrome P450 3A4 (P08684 whole entry): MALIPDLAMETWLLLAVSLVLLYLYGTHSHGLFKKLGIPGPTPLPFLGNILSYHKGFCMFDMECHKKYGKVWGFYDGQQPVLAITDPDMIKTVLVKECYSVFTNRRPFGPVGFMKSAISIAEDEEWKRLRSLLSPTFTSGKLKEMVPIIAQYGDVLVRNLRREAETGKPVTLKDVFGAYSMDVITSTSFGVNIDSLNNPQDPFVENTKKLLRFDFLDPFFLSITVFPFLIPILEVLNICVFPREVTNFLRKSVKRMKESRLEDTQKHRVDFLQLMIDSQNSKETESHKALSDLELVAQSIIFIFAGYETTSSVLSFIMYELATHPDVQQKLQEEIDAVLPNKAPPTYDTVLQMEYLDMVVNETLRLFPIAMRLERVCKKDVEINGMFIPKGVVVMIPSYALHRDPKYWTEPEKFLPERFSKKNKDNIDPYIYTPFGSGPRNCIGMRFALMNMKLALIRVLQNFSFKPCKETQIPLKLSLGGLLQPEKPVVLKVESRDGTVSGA
# [6] = biological target: Cytochrome P450 2D6 (Homo sapiens, UniProt P10635);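 note: CYP2D6 member of a cytochrome P450 panel assay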
# Sequence of Cytochrome P450 2D6 (P10635 whole entry): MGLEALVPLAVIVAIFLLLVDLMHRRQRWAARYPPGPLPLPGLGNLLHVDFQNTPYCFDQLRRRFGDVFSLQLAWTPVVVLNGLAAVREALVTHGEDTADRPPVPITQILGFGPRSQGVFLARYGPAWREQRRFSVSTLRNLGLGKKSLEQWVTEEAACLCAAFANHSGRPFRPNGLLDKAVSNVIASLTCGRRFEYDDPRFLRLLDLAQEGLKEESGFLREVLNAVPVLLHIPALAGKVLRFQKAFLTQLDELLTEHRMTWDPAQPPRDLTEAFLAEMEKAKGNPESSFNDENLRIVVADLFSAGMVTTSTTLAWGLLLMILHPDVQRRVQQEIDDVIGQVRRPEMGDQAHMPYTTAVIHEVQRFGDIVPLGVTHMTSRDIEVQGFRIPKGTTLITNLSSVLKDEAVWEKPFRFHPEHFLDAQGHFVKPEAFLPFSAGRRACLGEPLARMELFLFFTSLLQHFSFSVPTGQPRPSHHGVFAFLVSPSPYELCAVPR
# [7] = Luminescence Cell-Based Dose Confirmation HTS to Identify Inhibitors of Platelet Dense Granule Release. [Related pubchem assays: 1663 (Primary HTS), 1678 (Summary of Project)]; assay type: functional
# [8] = biological target: T1, Heat shock factor protein 1 (Mus musculus, UniProt P38532); assay: HSF1 potentiators in luciferase reporter cells, confirmation, cell-based, NIH3T3, luminescence, dose retest (AID 435004); assay type: functional;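 note: stress induced by proteasome inhibitor MG132 added 30 min after compound; luciferase reporter driven by HSF1 response element in NIH3T3 cells; actives raise luminescence as potentiators of the MG132 stress response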
# T1 sequence (P38532 whole entry): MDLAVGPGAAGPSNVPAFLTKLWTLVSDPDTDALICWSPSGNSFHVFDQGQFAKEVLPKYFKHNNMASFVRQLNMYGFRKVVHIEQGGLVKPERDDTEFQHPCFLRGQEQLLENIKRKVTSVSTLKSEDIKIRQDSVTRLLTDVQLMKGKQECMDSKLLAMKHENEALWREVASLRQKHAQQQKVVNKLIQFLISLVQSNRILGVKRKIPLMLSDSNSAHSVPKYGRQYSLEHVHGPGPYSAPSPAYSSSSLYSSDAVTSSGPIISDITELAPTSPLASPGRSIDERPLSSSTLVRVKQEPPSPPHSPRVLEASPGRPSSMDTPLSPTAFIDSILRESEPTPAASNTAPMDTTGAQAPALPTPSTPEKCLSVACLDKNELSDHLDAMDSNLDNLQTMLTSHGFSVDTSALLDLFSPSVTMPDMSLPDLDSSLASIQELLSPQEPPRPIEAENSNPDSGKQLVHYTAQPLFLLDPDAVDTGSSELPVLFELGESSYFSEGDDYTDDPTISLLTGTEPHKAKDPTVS
# [9] = biological target: Luciferin 4-monooxygenase (Photinus pyralis, UniProt P08659); assay: firefly luciferase enzyme inhibitors, dose response, biochemical, luminescence (AID 1891)
# Sequence of Luciferin 4-monooxygenase (P08659 whole entry): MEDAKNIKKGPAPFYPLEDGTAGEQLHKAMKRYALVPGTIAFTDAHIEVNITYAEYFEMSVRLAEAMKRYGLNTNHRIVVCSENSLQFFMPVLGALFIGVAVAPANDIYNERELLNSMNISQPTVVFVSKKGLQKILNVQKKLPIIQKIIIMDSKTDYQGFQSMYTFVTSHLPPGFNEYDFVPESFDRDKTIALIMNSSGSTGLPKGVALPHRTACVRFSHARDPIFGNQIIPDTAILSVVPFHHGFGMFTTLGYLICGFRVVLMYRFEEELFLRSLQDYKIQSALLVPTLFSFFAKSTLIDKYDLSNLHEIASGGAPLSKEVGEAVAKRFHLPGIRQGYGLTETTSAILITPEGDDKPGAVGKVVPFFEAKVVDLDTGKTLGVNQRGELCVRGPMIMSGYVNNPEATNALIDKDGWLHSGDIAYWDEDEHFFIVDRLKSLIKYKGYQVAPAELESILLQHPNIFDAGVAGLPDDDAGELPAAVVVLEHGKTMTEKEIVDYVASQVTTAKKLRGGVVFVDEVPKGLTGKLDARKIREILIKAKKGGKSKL
# [10] = biological target: Cytochrome P450 2C19 (Homo sapiens, UniProt P33261); assay: Cytochrome panel assay with activity outcomes. Panel member name: p450-cyp2c19 Compounds with AC50 equal or less than 10 uM are considered active; assay type: functional; conditions: read-out: AC50
# Sequence of Cytochrome P450 2C19 (P33261 whole entry): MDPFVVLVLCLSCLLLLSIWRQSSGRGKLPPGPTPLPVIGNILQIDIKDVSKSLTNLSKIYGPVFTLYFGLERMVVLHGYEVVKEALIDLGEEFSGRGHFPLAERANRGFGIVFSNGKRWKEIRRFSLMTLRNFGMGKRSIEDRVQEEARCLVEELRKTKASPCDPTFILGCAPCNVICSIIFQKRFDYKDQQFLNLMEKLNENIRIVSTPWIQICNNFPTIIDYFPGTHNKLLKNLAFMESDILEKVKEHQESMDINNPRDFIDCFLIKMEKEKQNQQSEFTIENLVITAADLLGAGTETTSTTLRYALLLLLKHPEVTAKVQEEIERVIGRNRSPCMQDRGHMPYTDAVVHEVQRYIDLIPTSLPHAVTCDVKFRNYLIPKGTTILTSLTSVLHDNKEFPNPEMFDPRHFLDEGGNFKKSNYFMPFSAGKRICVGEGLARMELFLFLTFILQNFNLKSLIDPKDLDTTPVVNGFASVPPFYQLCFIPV
# [11] = biological target: T2, Cytochrome P450 1A2 (Homo sapiens, UniProt P05177);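 note: PubChem cytochrome P450 panel assay, CYP1A2 panel member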
# T2 sequence (P05177 whole entry): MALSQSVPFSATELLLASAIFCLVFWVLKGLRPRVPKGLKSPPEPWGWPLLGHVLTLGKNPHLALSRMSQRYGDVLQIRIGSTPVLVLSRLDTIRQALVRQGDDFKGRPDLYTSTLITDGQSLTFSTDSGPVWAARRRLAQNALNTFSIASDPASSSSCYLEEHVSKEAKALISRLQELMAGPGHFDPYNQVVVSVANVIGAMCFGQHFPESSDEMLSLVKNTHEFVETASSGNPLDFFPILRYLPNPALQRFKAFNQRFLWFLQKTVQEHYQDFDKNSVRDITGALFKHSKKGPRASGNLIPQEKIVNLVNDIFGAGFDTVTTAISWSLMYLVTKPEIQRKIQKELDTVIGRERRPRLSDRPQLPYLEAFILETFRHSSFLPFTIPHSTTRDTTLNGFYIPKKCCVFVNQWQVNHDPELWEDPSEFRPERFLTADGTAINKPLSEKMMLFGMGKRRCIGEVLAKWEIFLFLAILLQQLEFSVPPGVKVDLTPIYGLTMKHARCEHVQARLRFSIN
# [12] = biological target: Cytochrome P450 2C9 (Homo sapiens, UniProt P11712)
# Sequence of Cytochrome P450 2C9 (P11712 whole entry): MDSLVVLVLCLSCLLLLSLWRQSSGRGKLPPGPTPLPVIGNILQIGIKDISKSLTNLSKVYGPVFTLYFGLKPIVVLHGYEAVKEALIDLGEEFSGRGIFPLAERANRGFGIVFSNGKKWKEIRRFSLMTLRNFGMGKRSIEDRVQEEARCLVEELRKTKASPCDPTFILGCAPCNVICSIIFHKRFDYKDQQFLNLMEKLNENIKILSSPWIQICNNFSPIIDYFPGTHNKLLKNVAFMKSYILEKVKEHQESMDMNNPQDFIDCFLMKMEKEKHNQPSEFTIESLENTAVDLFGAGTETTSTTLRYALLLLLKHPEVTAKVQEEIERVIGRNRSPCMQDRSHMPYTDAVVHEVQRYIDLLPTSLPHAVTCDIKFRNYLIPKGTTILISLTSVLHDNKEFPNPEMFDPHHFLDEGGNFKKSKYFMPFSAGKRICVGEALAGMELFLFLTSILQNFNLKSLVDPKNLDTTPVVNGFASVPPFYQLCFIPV
# [13] = inhibitors of intracellular T. cruzi replication, confirmation, NIH3T3 host cells, beta-gal luminescence (AID 2044); assay type: functional, cell-based;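 note: intracellular parasites grown in NIH/3T3 mouse fibroblasts as host cells; luminescent beta-galactosidase reporter signal from transgenic T. cruzi replicating inside host cells; inhibitors lower the luminescence signal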
# [14] = cytotoxicity toward NIH3T3 fibroblasts, dose response, counter-screen, cell-based, ATP luminescence, mouse fibroblasts (AID 2010); assay type: functional;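 note: cells exposed to compound for about 90 hours before reading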
# [15] = biological target: FAD-linked sulfhydryl oxidase ALR (Homo sapiens, UniProt P55789); assay: inhibitors of human ALR sulfhydryl oxidase, dose response, biochemical, H2O2 detection, luminescence, cherry-pick (AID 493248)
# Sequence of FAD-linked sulfhydryl oxidase ALR (P55789 whole entry): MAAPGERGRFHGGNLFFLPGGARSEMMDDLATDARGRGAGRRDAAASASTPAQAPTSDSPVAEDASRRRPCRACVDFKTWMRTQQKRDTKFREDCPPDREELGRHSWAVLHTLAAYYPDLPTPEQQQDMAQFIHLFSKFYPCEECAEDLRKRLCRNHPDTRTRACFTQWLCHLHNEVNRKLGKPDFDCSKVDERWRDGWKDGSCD
# [16] = tested on: Streptococcus sp. 'group A'; assay: growth inhibition of control SK(-) GAS strain, dose response, counter-screen for streptokinase expression inhibitor project, luminescence, kanamycin, BacTiterGlo, confirmation (AID 1900); assay type: functional, organism-based
# [17] = tested on: Streptococcus; assay: Group A Streptococcus viability loss, dose response, counter-screen for streptokinase expression inhibitor project, luminescence, BacTiterGlo (AID 1915); assay type: functional, organism-based;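 note: potency for reduction of bacterial viability or growth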
# [18] = biological target: T3, Streptokinase A (Streptococcus pyogenes serotype M1, UniProt P10520); assay: S. pyogenes streptokinase expression inhibitors, potency, dose response, plasminogen activation absorbance, OD405 (AID 1914); assay type: functional, Streptococcus pyogenes M1 GAS;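 note: secreted streptokinase activity via plasminogen activation per viability signal from cell pellet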
# T3 sequence (P10520 whole entry): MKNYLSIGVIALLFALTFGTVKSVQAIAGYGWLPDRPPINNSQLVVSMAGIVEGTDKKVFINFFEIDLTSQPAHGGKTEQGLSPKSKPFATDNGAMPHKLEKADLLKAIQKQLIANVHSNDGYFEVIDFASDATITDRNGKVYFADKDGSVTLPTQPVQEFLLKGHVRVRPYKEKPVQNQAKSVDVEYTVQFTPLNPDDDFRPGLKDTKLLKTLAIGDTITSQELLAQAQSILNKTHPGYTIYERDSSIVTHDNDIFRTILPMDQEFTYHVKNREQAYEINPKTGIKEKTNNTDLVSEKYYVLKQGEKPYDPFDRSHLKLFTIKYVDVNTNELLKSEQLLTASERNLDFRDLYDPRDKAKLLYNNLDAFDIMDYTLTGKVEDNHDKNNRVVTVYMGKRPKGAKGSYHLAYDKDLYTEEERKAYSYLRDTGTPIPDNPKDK
compound,measurement,setting,value
CCn1c(N=NO)nc2ccccc21,AC50,[1],1.83 µM (active)
same,EC50,[2],21.9 µM (active)
same,EC50,[3],> 38 µM (not active)
CC1(c2ccccc2)CC(C)(C)N(C(=O)CSc2nnc(N)s2)c2ccccc21 (centres undefined),CC50,[4],22.9 µM (active)
CCOc1ccc2nc(O)c(O)nc2c1,CC50,[4],45.8 µM (active)
CCc1cc2c(nc1CC)CCN(CC/C(C)=N/OC)C2,AC50,[5],3.16 µM (inconclusive)
same,AC50,[6],3.16 µM (inconclusive)
c1ccc2c(C3=NN=C(NC4CC4)SC3)c[nH]c2c1,EC50,[7],20.2 µM (active)
same,EC50,[8],> 260 µM (inactive)
same,EC50,[9],> 112 µM (not active)
COc1ccccc1-c1ccc2ncnc(NCc3cnc(C)cn3)c2c1,AC50,[10],39.8 µM (inconclusive)
same,AC50,[5],10 µM (inconclusive)
same,AC50,[6],39.8 µM (inconclusive)
CC(C)(C)C1CCC(OC(=O)C[N+]2(C)CCCCC2)CC1 (centres undefined),EC50,[2],18.1 µM (active)
same,EC50,[3],> 38 µM (not active)
COc1ccc(CN(C(=O)CSc2nnc(-c3ccccc3F)o2)c2ccc(F)cc2)cc1,CC50,[4],23.1 µM (active)
COc1ccc(-c2cc(CCCC(=O)NCCc3ccc(OC)cc3OC)no2)cc1,AC50,[11],0.562 µM (active)
same,AC50,[10],1.41 µM (active)
same,AC50,[12],0.562 µM (active)
same,AC50,[6],1.12 µM (active)
same,EC50,[8],> 260 µM (inactive)
CCN(CC)c1cccc(OC2=NS(=O)(=O)c3ccccc32)c1,EC50,[2],> 150 µM (inactive)
same,EC50,[3],5.06 µM (active)
CCCn1c(=N)n(CC(=O)c2ccco2)c2ccccc21,AC50,[11],10 µM (inconclusive)
same,AC50,[5],35.5 µM (inconclusive)
CS(=O)(=O)N(CC(=O)Nc1c(F)cccc1F)c1ccc(C23CC4CC(CC(C4)C2)C3)cc1,EC50,[13],2.25 µM (active)
same,AC50,[5],15.8 µM (inconclusive)
same,AC50,[6],4.47 µM (inconclusive)
same,EC50,[14],10.6 µM (active)
Cc1cc(O)nc2c(C)cc(S(=O)(=O)Nc3ccc(O)cc3)cc12,AC50,[15],1.3 µM (active)
O=C(NCc1cccnc1)c1ccc(-c2cccc(Cl)c2Cl)o1,EC50,[13],0.92 µM (active)
same,EC50,[2],> 38 µM (inactive)
same,EC50,[14],> 60 µM (not active)
same,EC50,[3],> 38 µM (not active)
COc1ccccc1N1CCN(Cc2nc(N)nc(Nc3ccc(C)c(Cl)c3)n2)CC1,EC50,[16],10.7 µM (active)
same,CC50,[4],19.6 µM (active)
same,EC50,[17],20.4 µM (active)
same,EC50,[18],> 150 µM (inconclusive)
CCCCC(=O)OCc1cn(-c2ccc(Cl)cc2)nn1,AC50,[10],2.24 µM (inconclusive)
same,AC50,[5],39.8 µM (inconclusive)
same,AC50,[6],25.1 µM (inconclusive)
Cc1cc(Cl)ccc1NNC(=O)c1snnc1C,EC50,[2],16.8 µM (inconclusive)
same,EC50,[3],1.59 µM (active)
N=c1ccn(Cc2ccc(Cl)cc2Cl)cc1,AC50,[1],7.25 µM (active)
Cc1ccc(S(=O)(=O)NNC(=O)c2ccc(NC(=O)C3CC3)cc2)cc1,EC50,[2],> 150 µM (inactive)
same,EC50,[3],12.7 µM (active)
CCc1ccc(NC(=O)CN2C(=O)CSC2=O)cc1,AC50,[15],1.2 µM (active)
NC(=NO)c1cn(Cc2ccccc2Cl)c2ccccc12,AC50,[15],0.488 µM (active)
N#Cc1cccc(NC(=O)N2CC[C@@]3(CCCN(C(=O)c4ccco4)C3)C2)c1,AC50,[5],20 µM (inconclusive)
COc1ccc(OC)c(C(c2nnnn2C2CCCC2)N2CCc3ccccc3C2)c1 (centres undefined),CC50,[4],24 µM (active)
COc1ccc(Br)cc1C(=O)Nc1ccc(O)cc1,AC50,[15],2.75 µM (active)
CCN1CCCC1CNC(=O)C1c2cc(OC)c(OC)cc2C(=O)N(C)C1c1cccnc1 (centres undefined),AC50,[10],1.12 µM (inconclusive)
same,AC50,[12],1.78 µM (inconclusive)
same,AC50,[5],5.62 µM (inconclusive)
CNC(=O)[C@H]1O[C@H](n2cnc3c(NCc4cccc(I)c4)ncnc32)[C@@H](O)[C@@H]1O,AC50,[5],31.6 µM (inconclusive)
COc1ccc(N2CCN(C(CNC(C)=O)c3ccc4c(c3)OCO4)CC2)cc1 (centres undefined),AC50,[15],4.58 µM (active)
Cc1ccc(O)c(NC(=O)C2CCCN2C(=O)OCc2ccccc2)c1 (centres undefined),AC50,[15],8.89 µM (active)
NC(=O)C1=C[C@@H](c2csc3ccccc23)C[C@@H](OCc2ccc(CO)cc2)O1,CC50,[4],15.5 µM (active)
Cc1ccc(/C=C/c2onc(C)c2S(=O)(=O)N2CCC(C(=O)N3CCCCC3)CC2)cc1,CC50,[4],> 50 µM (active)
O=C(CN1CCN(S(=O)(=O)c2ccccc2)CC1)Nc1ccc2c(c1)CCC2,EC50,[2],> 150 µM (inactive)
same,EC50,[3],> 38 µM (not active)
CCOc1cc(S(=O)(=O)NCc2ccccc2)c(OCC)cc1-n1cnnn1,EC50,[2],> 150 µM (inconclusive)
same,EC50,[3],3.34 µM (active)
Cc1oncc1-c1csc(-c2ccccc2)n1,CC50,[4],36.5 µM (active)
CCN(CCNC(=O)c1ccc(C#N)cc1)c1cccc(C)c1,AC50,[15],1.75 µM (active)
O=C(NCCc1ccccc1)C(=O)NCC1(c2ccccc2)CCCC1,AC50,[10],39.8 µM (inconclusive)
same,AC50,[5],3.16 µM (inconclusive)
NC(=O)NC(=O)CSc1nnc(-c2ccco2)n1Cc1ccccc1,AC50,[12],12.6 µM (inconclusive)
same,AC50,[5],25.1 µM (inconclusive)
COc1ccc(Br)cc1/C=N/Nc1ccc(Cl)c(C(=O)O)c1,AC50,[15],6.26 µM (active)
COc1nc(Oc2ccc(/C=N/O)cc2)nc(N(C)C)n1,AC50,[10],17.8 µM (inconclusive)
same,AC50,[15],2.99 µM (active)
same,AC50,[6],22.4 µM (inconclusive)
Cc1[nH]c2ccccc2c1/C=N/O,AC50,[15],20.2 µM (active)
